Where “and” joins values, the source holds several entries; their conditions need not be identical. Equal entries are not always repeated. Toxic doses and inconclusive results are not listed. The calls were made as follows: active = survival T/C of 150% or more; inactive = T/C below 125% in these data.
System: CD2F1 mice, L1210 leukemia ip, survival T/C
Assay: NCI In Vivo Anticancer Drug Screen. Data for tumor model L1210 Leukemia (intraperitoneal) in CD2F1 (CDF1) mice
Settings: endpoint: mean survival time, higher = longer survival
In short: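 Compound-dosed mice with transplantable tumor versus matched vehicle controls; endpoint ratio T/C reported.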

[1] = dose: 100.0 mg/kg/injection, schedule: Q04DX003 (ip), vehicle: saline with Tween-80
[2] = dose: 200.0 mg/kg/injection, schedule: Q04DX003 (ip), vehicle: saline with Tween-80
[3] = dose: 400.0 mg/kg/injection, schedule: Q04DX003 (ip), vehicle: saline with Tween-80
[4] = dose: 100.0 mg/kg/injection, schedule: Q01DX009 (ip), vehicle: saline with Tween-80
[5] = dose: 200.0 mg/kg/injection, schedule: Q01DX009 (ip), vehicle: saline with Tween-80
[6] = dose: 400.0 mg/kg/injection, schedule: Q01DX009 (ip), vehicle: saline with Tween-80
[7] = dose: 100.0 mg/kg/injection, schedule: Q04DX002 (ip), vehicle: saline with Tween-80
[8] = dose: 100.0 mg/kg/injection, schedule: Q01DX001 (ip), vehicle: saline with Tween-80
[9] = dose: 25.0 mg/kg/injection, schedule: Q01DX009 (ip), vehicle: saline with Tween-80
[10] = dose: 50.0 mg/kg/injection, schedule: Q01DX009 (ip), vehicle: saline with Tween-80
[11] = dose: 100.0 mg/kg/injection, schedule: Q04DX003 (ip), vehicle: Klucel (hydroxypropylcellulose) (HPC)
[12] = dose: 200.0 mg/kg/injection, schedule: Q04DX003 (ip), vehicle: Klucel (hydroxypropylcellulose) (HPC)
[13] = dose: 400.0 mg/kg/injection, schedule: Q04DX003 (ip), vehicle: Klucel (hydroxypropylcellulose) (HPC)
[14] = dose: 200.0 mg/kg/injection, schedule: Q04DX002 (ip), vehicle: saline with Tween-80

Measured: T/C

CC(=O)c1cc(-c2ccc(C)cc2)nc2c(C)cc(C)cc12
inactive: [1] 92 % of control | [2] 86 % of control | [3] 92 % of control

O.[Cl][Pt].[S-]CCN1CCOCC1
inactive: dose: 12.5 mg/kg/injection, schedule: Q04DX003 (ip), vehicle: distilled water + Tween-80 96 % of control | dose: 25.0 mg/kg/injection, schedule: Q04DX003 (ip), vehicle: distilled water + Tween-80 98 % of control | dose: 50.0 mg/kg/injection, schedule: Q04DX003 (ip), vehicle: distilled water + Tween-80 102 % of control | dose: 100.0 mg/kg/injection, schedule: Q04DX003 (ip), vehicle: distilled water + Tween-80 98 % of control | dose: 200.0 mg/kg/injection, schedule: Q04DX003 (ip), vehicle: distilled water + Tween-80 96 % of control

C=CCCCCCCCCCCC(=O)OC
inactive: [4] 106 % of control | [1] 93 % of control | [5] 106 % of control | [2] 94 % of control | [6] 101 % of control

Cc1cc(NC(=O)NCCOc2ccc(N3C(N)=NC(N)=NC3(C)C)cc2Cl)ccc1S(=O)(=O)F
inactive: dose: 12.5 mg/kg/injection, schedule: Q04DX003 (ip), vehicle: saline with Tween-80 107 % of control | dose: 25.0 mg/kg/injection, schedule: Q04DX003 (ip), vehicle: saline with Tween-80 102 % of control | dose: 50.0 mg/kg/injection, schedule: Q04DX003 (ip), vehicle: saline with Tween-80 91 % of control

Clc1cc(CBr)c2ccccc2n1
inactive: [7] 101 % of control

C=C1C(=O)OC2/C=C(\C)C3OC3/C=C(/C(=O)OC)C(O)C(OC(=O)C3(C)OC3C)C12 (centres undefined)
inactive: [8] 104 % of control

Nc1ccc(O)c2ccccc12
inactive: dose: 1.5 mg/kg/injection, schedule: Q04DX003 (ip), vehicle: other 111 % of control | dose: 3.0 mg/kg/injection, schedule: Q04DX003 (ip), vehicle: other 102 % of control

CCOC(=O)C(C(=O)OCC)N(Cc1ccccc1)Cc1ccccc1
inactive: dose: 12.5 mg/kg/injection, schedule: Q01DX009 (ip), vehicle: other 93 % of control | dose: 25.0 mg/kg/injection, schedule: Q01DX009 (ip), vehicle: other 93 % of control | dose: 50.0 mg/kg/injection, schedule: Q01DX009 (ip), vehicle: other 96 % of control | dose: 100.0 mg/kg/injection, schedule: Q01DX009 (ip), vehicle: other 93 % of control | dose: 200.0 mg/kg/injection, schedule: Q01DX009 (ip), vehicle: other 90 % of control

O=C1c2ccccc2C(=O)N1CNc1ccc(Cl)cn1
inactive: [4] 86 % of control | [1] 97 % of control and 100 % of control | [2] 90 % of control and 98 % of control | [6] 86 % of control | [3] 91 % of control and 102 % of control

COc1ccc(/C=C/c2ccc3ccccc3[n+]2C)c(OC)c1OC
inactive: dose: 5.0 mg/kg/injection, schedule: Q01DX009 (ip), vehicle: saline 98 % of control | dose: 10.0 mg/kg/injection, schedule: Q01DX009 (ip), vehicle: saline 86 % of control

OC1CCCC2CCCNC12 (centres undefined)
inactive: dose: 1.25 mg/kg/injection, schedule: Q01DX009 (ip), vehicle: Klucel (hydroxypropylcellulose) (HPC) 109 % of control | dose: 3.12 mg/kg/injection, schedule: Q01DX009 (ip), vehicle: saline with Tween-80 98 % of control | dose: 6.25 mg/kg/injection, schedule: Q01DX009 (ip), vehicle: saline with Tween-80 88 % of control | dose: 12.5 mg/kg/injection, schedule: Q01DX009 (ip), vehicle: saline with Tween-80 103 % of control | dose: 25.0 mg/kg/injection, schedule: Q01DX009 (ip), vehicle: Klucel (hydroxypropylcellulose) (HPC) 107 % of control | [9] 104 % of control | dose: 50.0 mg/kg/injection, schedule: Q01DX009 (ip), vehicle: Klucel (hydroxypropylcellulose) (HPC) 98 % of control | [10] 110 % of control

CC(C)(C)OC(=O)C(CC(=O)O)=C(c1ccccc1)c1ccccc1
inactive: dose: 100.0 mg/kg/injection, schedule: Q01DX009 (ip), vehicle: Klucel (hydroxypropylcellulose) (HPC) 102 % of control | [11] 101 % of control | dose: 200.0 mg/kg/injection, schedule: Q01DX009 (ip), vehicle: Klucel (hydroxypropylcellulose) (HPC) 100 % of control | [12] 103 % of control | dose: 400.0 mg/kg/injection, schedule: Q01DX009 (ip), vehicle: Klucel (hydroxypropylcellulose) (HPC) 104 % of control | [13] 109 % of control

CCCCCCCCOC(=O)Nc1ccc(S(=O)(=O)N(CCC)CCC)cc1
inactive: dose: 100.0 mg/kg/injection, schedule: Q01DX001 (ip), vehicle: saline 96 % of control | dose: 200.0 mg/kg/injection, schedule: Q01DX001 (ip), vehicle: saline 92 % of control | dose: 400.0 mg/kg/injection, schedule: Q01DX001 (ip), vehicle: saline 88 % of control

C1=CN2CCCN3C=CC=c4ccc(c2c43)=C1
inactive: dose: 7.5 mg/kg/injection, schedule: Q01DX001 (ip), vehicle: saline 101 % of control | dose: 7.5 mg/kg/injection, schedule: Q04DX003 (ip), vehicle: saline 97 % of control | dose: 15.0 mg/kg/injection, schedule: Q01DX001 (ip), vehicle: saline 95 % of control | dose: 15.0 mg/kg/injection, schedule: Q04DX003 (ip), vehicle: saline 105 % of control | dose: 30.0 mg/kg/injection, schedule: Q01DX001 (ip), vehicle: saline 95 % of control | dose: 30.0 mg/kg/injection, schedule: Q04DX003 (ip), vehicle: saline 97 % of control

O=C(O)c1ccc([N+](=O)[O-])cc1Br
inactive: [7] 96 % of control | [14] 107 % of control | dose: 400.0 mg/kg/injection, schedule: Q04DX002 (ip), vehicle: saline with Tween-80 100 % of control

CN(C)c1ccc(/C=C2/CCCC/C2=N/O)cc1
inactive: [11] 102 % of control | [12] 94 % of control | [13] 98 % of control

CC(C)(CC(=O)O)c1ccccc1
inactive: dose: 100.0 mg/kg/injection, schedule: Q04DX003 (ip), vehicle: saline sonified 97 % of control | dose: 200.0 mg/kg/injection, schedule: Q04DX003 (ip), vehicle: saline sonified 101 % of control | dose: 400.0 mg/kg/injection, schedule: Q04DX003 (ip), vehicle: saline sonified 97 % of control

CCCCCCCCN1C(=O)CCC1=O
inactive: [7] 103 % of control | [14] 91 % of control

CN(C)CCC(=O)c1cccc2ccccc12
inactive: [9] 98 % of control | [10] 96 % of control | [8] 92 % of control | [4] 96 % of control

Nc1ccc2c(c1)C=CCS2
inactive: [4] 102 % of control | [1] 104 % of control | [5] 98 % of control | [2] 98 % of control | [6] 90 % of control | [3] 104 % of control

O=C(OCC1OC(OC2(COC(=O)c3ccccc3)OC(COC(=O)c3ccccc3)C(OC(=O)c3ccccc3)C2OC(=O)c2ccccc2)C(OC(=O)c2ccccc2)C(OC(=O)c2ccccc2)C1OC(=O)c1ccccc1)c1ccccc1 (centres undefined)
inactive: [8] 100 % of control | dose: 200.0 mg/kg/injection, schedule: Q01DX001 (ip), vehicle: saline with Tween-80 100 % of control | dose: 400.0 mg/kg/injection, schedule: Q01DX001 (ip), vehicle: saline with Tween-80 102 % of control

— PubChem BioAssay AID256 (DTP/NCI, 2004)
